Results: article PMC10560236, “A protein kinase C α and β inhibitor blunts hyperphagia to halt renal function decline and reduces adiposity in a rat model of obesity-driven type 2 diabetes” (Scientific Reports, 2023)
pIC50: −log10 of the molar value.

Assays:
[1] = target: PKC activity in glomerular lysates from ZSF1 obese rats; test: Radioactive pan-PKC kinase assay with glomerular lysates; format: biochemical, rat; details: glomerular lysates from 20-week old ZSF1 obese rats, pan-PKC pseudo-substrate peptide
Method: Glomeruli were isolated using an established protocol of serially sieving minced kidney cortex tissue through mesh filters of decreasing pore size[69]. For radioactive pan-PKC assays, glomeruli were lysed in a buffer consisting of 50 mM Tris–HCl pH 8, 5 mM EDTA, 5 mM EGTA, protease and phosphatase inhibitor cocktails, 1% 2-mercaptoethanol, and 0.028% n-dodecyl-β-D-maltopyranoside (Anatrace D310) by sonication using two 10 s pulses with a probe sonicator. Supernatants were collected following centrifugation at 4 °C at 20,200 × g for 10 min. A 25 μL aliquot was used in a 50 μL ^32P-ATP pan-PKC radioactive kinase assay with the pan-PKC pseudo-substrate peptide RFARKGSLRQKNV. The reaction was incubated for 10 min at 37 °C prior to filter binding and scintillation counting. Data are reported as CPM incorporation per μg of total protein in the reaction, as determined using Pierce Coomassie Plus Protein Assay of the original lysate (Pierce 23236). Where indicated, the reaction was run in the presence of increasing amounts of Cmpd 1.

PKCζ = target: T1, PKCζ (Homo sapiens, UniProt Q05513); test: Z'-Lyte recombinant enzyme assay, PKCζ; format: biochemical
T1 sequence (Q05513 1-592): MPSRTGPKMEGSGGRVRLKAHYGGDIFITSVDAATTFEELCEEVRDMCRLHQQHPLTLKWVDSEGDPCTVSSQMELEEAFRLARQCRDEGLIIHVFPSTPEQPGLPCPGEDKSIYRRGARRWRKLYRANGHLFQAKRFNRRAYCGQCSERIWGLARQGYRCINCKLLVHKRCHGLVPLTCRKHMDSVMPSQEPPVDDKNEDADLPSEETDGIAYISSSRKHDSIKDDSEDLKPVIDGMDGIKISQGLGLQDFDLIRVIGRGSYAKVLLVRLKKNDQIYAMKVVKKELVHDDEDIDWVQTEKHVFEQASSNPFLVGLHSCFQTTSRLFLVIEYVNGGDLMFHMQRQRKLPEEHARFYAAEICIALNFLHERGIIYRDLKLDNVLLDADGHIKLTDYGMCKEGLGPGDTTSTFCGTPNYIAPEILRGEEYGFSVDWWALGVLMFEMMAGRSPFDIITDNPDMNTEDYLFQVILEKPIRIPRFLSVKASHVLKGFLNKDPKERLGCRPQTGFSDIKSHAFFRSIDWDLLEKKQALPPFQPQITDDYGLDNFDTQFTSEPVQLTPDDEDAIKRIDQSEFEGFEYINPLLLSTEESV
Method: (§1) Half maximal inhibitory concentrations of Cmpd 1 were determined by Z’-Lyte biochemical assays (Life Technologies SelectScreen™ Kinase Profiling Services, Thermo Fisher Scientific). Kinome selectivity was determined at 1 μM Cmpd 1 concentration against a panel of 119 kinases. The original kinome tree in Fig. 1b was taken from Ref.[68].

PKCγ = PKCγ (Homo sapiens, UniProt P05129); test: Z'-Lyte recombinant enzyme assay, PKCγ; format: biochemical
Method: as §1

PKCα/β = test: In vivo kinase occupancy profiling of spleens (probe-based chemoproteomics); set-up: species or system rat; details: Cmpd 1 chow-dosed ZSF1 obese rats; only PKCα/β from over 200 detectable kinases
Method: In vivo kinase profiling Spleens from 22–23 week old ZSF1 obese male rats provided no drug Chow or Cmpd 1 chow (n = 2 each) were snap frozen, pulverized, and approximately 100–150 mg of each sample were sent to ActiveX for analysis using a probe-based chemoproteomics platform to measure the fraction of kinase bound versus unbound by an ATP-competitive inhibitor. A kinase bound by an ATP-competitive inhibitor such as Cmpd 1 will be less accessible to a covalent ATP probe, and will consequently have a reduced peak in quantitative mass spectrometry of the tryptic fragment corresponding to its active site pulled down by the covalent biotinylated ATP probe. Lysates from n = 2 animals for each group were combined for the analysis.

PKC family members = test: Selectivity within PKC family (enzymatic assays); format: biochemical; details: PKC family members other than α, β, θ, γ
Method: as §1

For Cc1ncc(F)c(Nc2n[nH]c3c2CN(C(=O)N2C[C@@H](C)N(CC4CCOCC4)C[C@@H]2C)C3(C)C)n1 [Cmpd 1, 5-[(2S,5R)-2,5-dimethyl-4-(tetrahydro-2H-pyran-4-ylmethyl)piperazin-l-yl]carbonyl-N-(5-fluoro-2-methylpyrimidin-4-yl)-6,6-dimethyl-1,4,5,6-tetrahydropyrrolo[3,4-c]pyrazol-3-amine], the pIC50 [1] was 7.15, the pIC50 (PKCζ) was under 5.00 and the pIC50 (PKCγ) was 7.02. The “Kinase occupancy in spleen” value (PKCα/β) was over 90% and the “Selectivity against all other PKC family members” value (PKC family members) was “greater than 40 fold”.
